The values that follow come from US20150017636A1, “Detection and Monitoring of Macrocyclic Lactone Resistance in Nematodes” (priority 2013, published 2015).

Like-named read-outs stand apart in the source and are kept apart here.

For one experiment, the system named is C. elegans IVR10 strain. Description: Rescue of Dyf7 gene in IVR10: ivermectin sensitivity of transgenic worms on NGM plates. The experiment is classed as in vivo, Caenorhabditis elegans. The settings on record: Dyf7 ttx 1 and Dyf7 ttx 2 strains (IVR10 with wildtype Dyf7 transgene), 6 ng/mL ivermectin, plated as eggs, scored at two days. On the procedure:
FIG. 2 illustrates the rescue of Dyf7 gene in C. elegans IVR10 strain. Effect of Dyf7 rescued (strains Dyf7 ttx 1 and Dyf7 ttx 2) on ivermectin sensitivity. Strains “ttx ctrl 1” and “ttx ctrl 2” contain only the ttx-3:GFP transgenic marker. Results are shown as the percentage of growth of transgenic nematodes (as measured by GFP expression) in function of the type of transgenic nematode and treatment.
The wild-type Bristol N2 C. elegans strain was cultured in nematode growth medium (NGM) with OP50 Escherichia coli under standard conditions (Brenner, 1974). The IVR6 and IVR10 resistant strains to ivermectin were derived from Bristol N2, by successive increasing concentrations of ivermectin (James and Davey, 2009). […]
Genomic DNA extracted from C. elegans C43C3 cosmid (provided by the Sanger Institute, UK) was used to amplify the Dyf7 gene using the primers Dyf7-CeB-sense-5′-[…]-3′ (SEQ ID NO: 3) and Dyf7-CeB-antisense-5′-CTCATTTCTGGTCAAACG-3′ (SEQ ID NO: 4). […] The worms were separated into transgenic and non-transgenic based on GFP expression (green channel) and then each population scored for resistance phenotype.
To determine if the Dyf7 rescuing fragment rescues the ivermectin-sensitivity phenotype of IVR10, each strain was plated, as eggs, onto NGM plates containing 6 ng/mL ivermectin and DMSO control plates. At two days, the L4 and adult worms were scored for presence of the transgene. […]

The test system of a further experiment is Haemonchus contortus. As to conditions: cited from earlier work.

For the substance ivermectin, in the experiment with C. elegans IVR10 strain, the “growth of transgenic worms (escape from L1 arrest, L4 and adult worms scored for the transgene)” value is recorded as “no transgenic worms that escaped L1 arrest”. Besides, the “IVM Drug Phenotype” value with Haemonchus contortus (isolate 1202, Brazil) was “Resistant”; in the experiment on Haemonchus contortus (isolate CRA, RSA), “Susceptible”; in the experiment with Haemonchus contortus (isolate Cedara, RSA), “Resistant”; with Haemonchus contortus (isolate Coruzu, Argentina) it was “Resistant”; in the experiment with Haemonchus contortus (isolate F15, Brazil), “Resistant”; with Haemonchus contortus (isolate Haecon, Australia), “Resistant”. The “IVM Drug Phenotype” value in the experiment with Haemonchus contortus (isolate Howick, RSA) is listed as “Resistant”; with Haemonchus contortus (isolate ISE, UK) it was “Susceptible”; with Haemonchus contortus (isolate Kokstad, RSA) it was “Resistant”; in the experiment on Haemonchus contortus (isolate MOF23, USA) it was “Moderate Resistant”; with Haemonchus contortus (isolate MOF23-9*, USA, 23 generations of moxidectin selection), “Resistant”; with Haemonchus contortus (isolate PF23, USA) it was “Susceptible”. The “IVM Drug Phenotype” value is recorded as “Susceptible” with Haemonchus contortus (isolate PF23-24, USA); “Resistant” in the experiment with Haemonchus contortus (isolate Rog-gliswil, Switzerland); “Resistant” in the experiment on Haemonchus contortus (isolate SUL, Uruguay); “Susceptible” with Haemonchus contortus (isolate Sorin, France); “Susceptible” in the experiment on Haemonchus contortus (isolate Wallangra 85, Australia); “Susceptible” in the experiment with Haemonchus contortus (isolate Yallanbee, Australia). The “IVM phenotype of the strain” value in the experiment on Haemonchus contortus (strain IVF23, ivermectin selected from the PF strain) is reported as “resistant”.
